Consider 1 molecule from patent publication US10232043B2, “Photoactivated molecules for light-induced modulation of the activity of electrically excitable cells and methods of using the same” (UNIVERSITY OF SOUTHERN CALIFORNIA, priority 2015, dated 2019).

One data set concerns leech ganglion neurons. Kind of data set: Leech ganglion neurons, light-induced action potential firing. The format is cell-based, Hirudo verbana. Particulars: ex vivo leech ganglia. On the procedure:
Adult leeches Hirudo verbana will be obtained from Niagara Medical Leeches, Inc. (Westbury, N.Y., USA). Groups (20-30) of animals will be kept in glass aquaria with artificial pond water (36 mg/L Instant Ocean salts; Aquarium Systems, Mentor Ohio), in a temperature-controlled room at 16° C. and a 12:12 h light:dark cycle. At the time of experiments, leeches will weigh 1-3 g. Before dissection, the leech will be anesthetized in ice-cold leech saline. Leech saline has the following composition (in mM per liter): NaCl—115, KCl—4, CaCl2—1.8, MgCl2—2, HEPES—10, D-Glucose—5 (Sigma-Aldrich, USA). Individual ganglia will be dissected from the mid-body segments M6-M12, and pinned down in Sylgard-filled dissection box. Medial dorsal longitudinal incision will be made and the blood will be flushed away. Connective tissue and the blood vessel overlaying the ganglion chain will be incised. Dissected ganglia will be transferred to a Petri dish, pinned down in paraffin with six stainless steel pins (dorsal side up). PVNs will be microinjected into the extracellular space of the ganglion with a glass micropipette. Intracellular recording will be performed by penetrating the Retzius neurons with sharp glass electrodes (20-30 MOhm) filled with 3M potassium acetate. […] Neuronal firing will be recorded before and after the injections.

The conditions of data set [1]: aqueous solution; cited from earlier work.
The subject of the next data set is INS cells. The experiment in a line: Whole cell patch clamp, current-clamp membrane potential under light. Type of data set: cell-based, rat. Particulars: for light-induced increase of membrane potential: 488 nm. On the procedure:
Membrane potential was monitored using whole cell patch clamp in current-clamp mode. Cultured cells (INS and HEK293) were plated on a glass-bottomed culture dishes 1-3 days prior to recording. Cells were incubated in standard extracellular solution with or without 10 μM RubpyC17 compound for approximately 1.5-2 minutes, then washed and incubated with standard extracellular solution without additional supplementation, or with 2-5 mM ascorbate, 100 μM sodium ferrocyanide, or 100-200 μM potassium ferricyanide, as indicated. The chamber was transferred to the microscope stage. Extracellular solution consisted of 140 mM NaCl, 2.8 mM KCl, 10 mM HEPES, 1 mM MgCl2, 2 mM CaCl2, 10 mM glucose, pH adjusted to 7.3, and osmolarity adjusted to 300-310. Conventional whole-cell patch clamp recordings were performed with an EPC-9 amplifier and Pulse software (HEKA Electronics). Pipette electrodes of 1.8-3.5 Mohm were fire polished before use. Intracellular solution consisted of: 145 mM KCl, 10 mM NaCl, 1 mM MgCl2, 1 mM EGTA, 2 mM ATP, 0.3 mM GTP and 10 mM HEPES, pH adjusted to 7.3 and osmolarity adjusted to 290-300 mOsm. To monitor changes in membrane voltage/potential, cells were patch clamped in current-clamp mode. Access resistances were in the range of 3-8 Mohm. Using Pulse, membrane potentials were recorded before, during and after illumination by the argon ion laser at 488 nm with an irradiance value of 0.458 mE s^−1 m^−2 or by a xenon lamp source through a 470/40 nm bandpass excitation filter with an irradiance value of 0.480 mE s^−1 m^−2. The duration of illumination varied and the timing is indicated by bars on the figures.
Initial attempts were tied to INS and HEK cells, both cells that are not excitable under normal conditions (INS cells were maintained in low glucose <3 mM to prevent action potentials). The cells were incubated in 10 μM of RubpyC17 compound for approximately 2 minutes then washed with standard extracellular solution, supplemented with 2 mM ascorbate. It was hypothesized that when RubpyC17 is incorporated into the cell membrane, illumination would induce accumulation of negative charges at the outer face of the cell membrane, due to transfer of an electron from ascorbate to the photoactivated RubpyC17 resulting in membrane depolarization. To monitor the plasma membrane potential, the cells were patch-clamped in whole-cell configuration in current-clamp mode and membrane voltages were recorded while illuminating the cell at 488 nm (0.46-0.48 mE s^−1 m^−2), though other wavelengths are useful, depending on the embodiment.

In data set [2] the test system is INS, HEK293T and chromaffin cells. The experiment in a line: Imaging RubpyC17 in live cells (membrane integration). The format is cell-based, rat, human, mouse. The procedure: Cells were imaged at 1-3 days after plating. The glass-bottomed chambers with adherent cells were washed twice with PBS and then filled with standard extracellular solution consisting of 140 mM NaCl, 2.8 mM KCl: 10 mM HEPES, 1 mM MgCl2, 2 mM CaCl2, and 10 mM glucose, pH adjusted to 7.2-7.4 and osmolarity adjusted to 290-310 mOsm. The chamber was then mounted on an Olympus IX70 inverted microscope stage for imaging, using a Cascade 512B EMCCD camera, operated by Metamorph software. Initial imaging was done with, cells in extracellular solution without RubpyC17, first under brightfield to evaluate cell health and morphology, then under widefield argon ion laser illumination at 488 nm (Coherent, Innova 90-5, Santa Clara, Calif.), to evaluate autofluorescence. Next, the extracellular solution was removed and replaced with extracellular solution containing the RubpyC17 compound (10 μM in <0.01% DMSO, final concentrations). Cell images were then acquired with illumination at 488 nm (collected with a long-pass red emission filter). For electrophysiological experiments, RubpyC17 compound was added to the extracellular solution (2-10 μM in <0.01% DMSO, final concentrations as indicated) and cells were incubated for 1.5-45 min, as indicated, then washed with extracellular solution without RubpyC17. Some chromaffin cells were also exposed continuously to 490-900 nM RubpyC17-containing extracellular solution.
Illustrated here are rat insulinoma INS cells (see FIG. 17C, top), human embryonic kidney (HEK293T) cells (see FIG. 17C, middle), and primary cultured mouse chromaffin cells (see FIG. 17C, bottom). […] All cell types preserved morphology for at least 10 minutes. […] One embodiment of the possible light-induced electron transfer is depicted in FIG. 2.

“Also recorded” adds a separate entry of the source.

For the molecule `CCCCCCCCCCCCCCCCCc1ccnc(-c2cc(C)ccn2)c1.F[P-](F)(F)(F)(F)F.F[P-](F)(F)(F)(F)F.[Ru+2].c1ccc(-c2ccccn2)nc1.c1ccc(-c2ccccn2)nc1` [RubpyC17, [Ru(bpy)2(bpy-C17)](PF6)2], the “light-induced action potential firing” value in the data set on leech ganglion neurons was “respond to illumination by firing action potentials; also recorded: light-induced increases in action potential firing”. In addition, in data set [1], the “electron transfer rate ket to oxidant ferricyanide” value is roughly 6.5e+09 M⁻¹ s⁻¹. Also, the “continuous illumination required to reach maximum light-triggered depolarization” value in the data set with INS cells (0.46-0.48 mE s−1 m2, FIGS. 18B-18F) is roughly 30 s. Moreover, the “light-induced increase of membrane potential” value with INS cells (INS cells, 10 μM ~2 min, 2 mM ascorbate) was found to be 15.9 ± 4.6 mV; in the data set with INS cells (INS cells, absence of ascorbate), 9.8 ± 4.5 mV. Moreover, the “light-triggered depolarization with non-permeating ions” value with INS cells (INS cells, cesium and NMDG instead of potassium and sodium) is “still persisted”. Moreover, the “illumination time at which cells undergo membrane potential change” value in the data set on INS cells (oxidants (ferricyanide) present, FIG. 18A) was no less than 10 s; in the data set on INS cells (reductants (ascorbate) present, INS and HEK293T (FIG. 18A)), no less than 25 s. Also, the “reversibility of light-induced depolarization” value with INS cells (presence of reductants) was “appears to be irreversible”. Also, the “time for which all cell types preserved morphology” value in data set [2] (10 μM RubpyC17) is given as “at least 10 minutes”. Further, in data set [2] (10 μM in bath, INS, HEK293T, mouse chromaffin cells), the “incorporation into cell membranes (plasma membrane-localized luminescence)” value is “rapidly and stably incorporates into mammalian cell membranes”. Also, in data set [2] (at 10 minutes after removal), the “membrane luminescence after RubpyC17 removal from the bath solution” value is listed as “still observed”.
